# From patent US8853194B2, “Sterol derivatives and their synthesis and use” (priority 2009, dated 2014)
# Where “and” joins values, the source holds several entries; their conditions need not be identical. Identical values can stand only once. Like-named read-outs stand apart in the source and are kept apart here. Marks after values point to notes of the source that are not given here.
# Tests used:
# [1] = tested on: human hepatoma cell HepG2
# Experimental: (§1) The human hepatoma cells HepG2, human lung cancer cells A549 and NIH3T3 cells were recovered, and subcultured in culture flasks. Once the cells grew to the logarithmic phase, the experiment can be started. The cells were digested by high-pressure filtered trypsin to prepare a cell-containing suspension, dyed for 3 minutes with 0.4% trypan blue, and then counted with the blood-cell counter (living cells were not colored, while dead cells were stained blue).
# (§2) The three types of cells in logarithmic phase were seeded in 96-well plates with a density of 1×10^4/ml (200 μL/well), and then cultivated for 24 hours at 37° C. in 5% CO2 cultivable box. The culture media was aspirated and discarded. […] After cultivating for 24 hours and 48 hours, 100 ul supernatant was carefully aspirated and discarded, respectively. MTS (20 μl/well) was added and mixed evenly. The mixture was cultivated for 1 hour at 37° C. in 5% CO2 cultivable box. The absorbency at 492 nm was determined by quantitative Enzyme-linked immunosorbent assay (ELISA). The experiment was repeated for three times. The growth inhibition rate was calculated as follows. Growth Inhibition rate(%)=[(mean OD value of control group−mean OD value of treatment group)/mean OD value of control group]×100%
# [2] = tested on: human immortalized fibroblast cell NIH3T3
# Experimental: as §1, §2
# [3] = tested on: human lung cancer cell A549
# Experimental: as §1, §2
# [4] = tested on: CAM vessels; assay: CAM assay, effect on tumor angiogenesis; type: in vivo, German Roman embryonated eggs; conditions: 72 hours incubation
# Experimental: A sterile gelatin sponge, previously made into disks with diameter of 5 mm by a hole puncher, was used as sample carrier. […] There were 3 dose groups, wherein 5 μl (low dose group, with a dose volume of 2 μg/embryo), 10 μl (middle dose group, with a dose volume of 4 μg/embryo), and 20 μl (high dose group, with a dose volume of 8 μg/embryo) of the solution were added respectively into gelatin sponge slices by a quantitative liquid transfer. The sponge slices were dried in the sterile environment.
# A sterilized egg was placed into a 37° C. incubator with its air chamber upward. In the 7th day, the embryo was positioned on a super-clean bench and sterilized by ethanol, and then it was drilled by a dental drill to form a little hole in the top of the embryo. Egg shell and shell membrane around the hole were carefully removed to form an opening of about 1.2 cm×1.2 cm; after determining a sample-adding site, the air chamber membrane was carefully pricked at the separation place between the chamber and the yolk by a syringe needle; through the prick hole 1-2 drops of sterilized water was injected, which made the chamber membrane and the CAM membrane be separated; after gently removing the upper layer of the chamber membrane with forceps, the CAM membrane in the lower layer was exposed.
# A drug-containing carrier was placed, at the junction area of the CAM membrane and the yolk sac membrane, on a site where vessels were less, and then sealed with sterilized transparent adhesive tape to continue to incubate for 72 hours.
# After the incubation, the transparent adhesive tape stopped on the top of the air chamber was gently removed by forceps; a mixture of methanol/acetone (1:1, 1-2 ml) was gently added; the room temperature was remained constant for 10 minutes. Then, the CAM membrane was carefully peeled off and placed on a glass slide for observing and taking photos. The effect of the compound on angiogenesis was assessed by counting the numbers of large, middle, small blood vessels radiated by the carrier.
# [5] = tested on: Caspase 3; conditions: 2.0 μg, HepG2 cells, A405
# Experimental: 2.1.1 HepG2 cells were digested by trypsin in the cell culture medium. The resulting mixture (6000 was centrifuged for 5 minutes at 4° C. to collect the cells. The supernatant was carefully aspirated and discarded. The remains were washed once with PBS, added to lysate (100 μl/2×10^6 cells); and then, after resuspending the precipitation, ice cracked for 15 minutes.
# 2.1.2 The resulting mixture (16000 g) was centrifuged at 4° C. for 15 minutes.
# 2.1.3 The supernatant was transferred into a centrifugal tube that was pre-cooled by ice bath.
# 2.2.1 Took out pNA and a suitable amount of Ac-DEVD-PNA (2 mM), put them on the ice bath for later use;
# 2.2.3 Incubating at 37° C. for 120 minutes, detecting Caspase 3 with A405;
# [6] = tested on: VEGF; conditions: 16 mg/kg (low dose group), OD at 450 nm
# Experimental: Before taking tumors out, blood was collected by eye bleeding from mice in the four groups, i.e. the negative control group, the positive CTX control group, the high dose (32 mg/kg) group and the low dose (16 mg/kg) group.
# 1.1 Preparing reagents, samples and standards;
# 1.2 Adding the prepared samples and standards, and reacting for 90 minutes at 37° C.;
# 1.3 Washing the plate twice, adding biotinylated antibody working solution, and reacting for 60 minutes at 37° C.;
# 1.4 Washing the plate for three times, adding ABC working solution, and reacting for 30 minutes at 37° C.;
# 1.5 Washing the plate for five times, adding TMB color liquid, and reacting in dark for 15 minutes at 37° C.;
# 1.6 Adding TMB stop solution, and measuring OD value at 450 nm.
compound,measurement,setting,value
"CC(C)CCC[C@@H](C)[C@H]1CC[C@@H]2[C@]1(C)CC[C@H]1[C@]23C=C[C@]2(CC(=O)CC[C@]12C)OO3 [CL168-6, 5α,8α-cyclicobioxygen-6-cholesten-3-one]",24 h Inhibition rate (%) HepG2,[1]; 2.5 μg/ml,52.85%
same,48 h Inhibition rate (%) HepG2,[1]; 2.5 μg/ml,59.83%
same,24 h Inhibition rate (%) HepG2,[1]; 5.0 μg/ml,58.51* %
same,48 h Inhibition rate (%) HepG2,[1]; 5.0 μg/ml,69.08* %
same,24 h Inhibition rate (%) HepG2,[1]; 10.0 μg/ml,64.39%
same,48 h Inhibition rate (%) HepG2,[1]; 10.0 μg/ml,73.67%
same,24 h Inhibition rate (%) NIH3T3,[2]; 2.5 μg/ml,3.87%
same,48 h Inhibition rate (%) NIH3T3,[2]; 2.5 μg/ml,0.75%
same,24 h Inhibition rate (%) NIH3T3,[2]; 5.0 μg/ml,5.69%
same,48 h Inhibition rate (%) NIH3T3,[2]; 5.0 μg/ml,1.97%
same,24 h Inhibition rate (%) NIH3T3,[2]; 10.0 μg/ml,8.45%
same,48 h Inhibition rate (%) NIH3T3,[2]; 10.0 μg/ml,5.37%
same,24 h Inhibition rate (%) A549,[3]; 2.5 μg/ml,48.69%
same,48 h Inhibition rate (%) A549,[3]; 2.5 μg/ml,51.91%
same,24 h Inhibition rate (%) A549,[3]; 5.0 μg/ml,55.78* %
same,48 h Inhibition rate (%) A549,[3]; 5.0 μg/ml,59.75* %
same,24 h Inhibition rate (%) A549,[3]; 10.0 μg/ml,62.40%
same,48 h Inhibition rate (%) A549,[3]; 10.0 μg/ml,69.67% and 69.37* %
same,Large vessels (number of the vessels),[4]; 2 ug/embryo,3.5 ± 1.8
same,Middle vessels (number of the vessels),[4]; 2 ug/embryo,13.2 ± 3.7
same,Small vessels (number of the vessels),[4]; 2 ug/embryo,8.8 ± 2.3
same,Large vessels (number of the vessels),[4]; 4 ug/embryo,3.6 ± 1.9
same,Middle vessels (number of the vessels),[4]; 4 ug/embryo,11.2 ± 3.2
same,Small vessels (number of the vessels),[4]; 4 ug/embryo,6.5 ± 2.5
same,Large vessels (number of the vessels),[4]; 8 ug/embryo,2.5 ± 2.0
same,Middle vessels (number of the vessels),[4]; 8 ug/embryo,12.6 ± 5.6
same,Small vessels (number of the vessels),[4]; 8 ug/embryo,4.0 ± 2.8
same,OD value of Caspase3,[5]; 24 h,0.190
same,OD value of Caspase3,[5]; 48 h,0.185
same,OD value of serum VEGF,[6],0.2064 ± 0.0114^□
